Assay results from the supplement of paper PMC10307832.

Assays:
Test in all cases: relative viability (nuclei count vs DMSO), 5 days (fraction); higher = more cells survive
[1] = compound: CC(=O)c1c(C)c2cnc(Nc3ccc(N4CCNCC4)cn3)nc2n(C2CCCC2)c1=O [Palbociclib] + COc1cccc2cc(-c3nc([C@H]4CC[C@H](C(=O)O)CC4)n4ncnc(N)c34)[nH]c12 [OSI-027] (partner 0.5 µM)
Method in brief: (§1)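 Cells from lung cancer lines were seeded into 1536-well plates and, one day later, dosed by pin tool. Treatments were either a single drug or a fixed dose of an anchor drug with five library-drug doses (not always all listed) in √10 steps. After 5 days, nuclei were stained in a one-step fixation (final 0.05% Triton X-100, 1% formaldehyde, 1 ug/ml Hoechst) and counted on 4× images, and relative viability is the treated-to-vehicle nuclei ratio, as the median of duplicate plates.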

[2] = compound: CC(=O)c1c(C)c2cnc(Nc3ccc(N4CCNCC4)cn3)nc2n(C2CCCC2)c1=O [Palbociclib] + CC1(C)CCC(c2ccc(Cl)cc2)=C(CN2CCN(c3ccc(C(=O)NS(=O)(=O)c4ccc(N[C@H](CCN5CCOCC5)CSc5ccccc5)c(S(=O)(=O)C(F)(F)F)c4)cc3)CC2)C1 [Navitoclax] (partner 0.5 µM)
Method in brief: as §1

[3] = compound: CC(=O)c1c(C)c2cnc(Nc3ccc(N4CCNCC4)cn3)nc2n(C2CCCC2)c1=O [Palbociclib] + CS(=O)(=O)N1CCN(Cc2cc3nc(-c4cccc5[nH]ncc45)nc(N4CCOCC4)c3s2)CC1 [Pictilisib] (partner 1 µM)
Method in brief: as §1

[4] = compound: CC(=O)c1c(C)c2cnc(Nc3ccc(N4CCNCC4)cn3)nc2n(C2CCCC2)c1=O [Palbociclib] + C[C@]1(O)C[C@@H](c2nc(-c3ccc4ccc(-c5ccccc5)nc4c3)c3c(N)nccn32)C1 [Linsitinib] (partner 1 µM)
Method in brief: as §1

Cell Line	relative viability ([1]; first compound 0.01 µM)	relative viability ([1]; first compound 0.03162 µM)	relative viability ([1]; first compound 0.1 µM)	relative viability ([1]; first compound 0.3162 µM)	relative viability ([1]; first compound 1 µM)	relative viability ([2]; first compound 0.01 µM)	relative viability ([2]; first compound 0.03162 µM)	relative viability ([2]; first compound 0.1 µM)	relative viability ([2]; first compound 0.3162 µM)	relative viability ([2]; first compound 1 µM)	relative viability ([3]; first compound 0.01 µM)	relative viability ([3]; first compound 0.03162 µM)	relative viability ([3]; first compound 0.1 µM)	relative viability ([3]; first compound 0.3162 µM)	relative viability ([3]; first compound 1 µM)	relative viability ([4]; first compound 0.01 µM)	relative viability ([4]; first compound 0.03162 µM)	relative viability ([4]; first compound 0.1 µM)	relative viability ([4]; first compound 0.3162 µM)	relative viability ([4]; first compound 1 µM)
BEN	0.298	0.274	0.255	0.252	0.286	0.0758	0.0563	0.0761	0.0645	0.0615	0.612	0.425	0.402	0.411	0.3	1.14	0.759	0.618	0.747	0.497
NCI-H596	0.681	–	0.761	0.649	0.809	0.99	0.945	0.976	0.949	1.1	0.379	0.422	0.385	0.397	0.387	1.12	0.914	0.95	1.02	1.03
NCI-H23	0.576	–	0.502	0.463	0.408	1.13	–	0.79	0.789	0.572	0.575	–	0.362	0.36	0.205	0.794	–	0.509	0.46	0.398
EMC-BAC-2	0.368	0.346	0.29	0.318	0.29	1.16	1.07	1.06	0.953	0.731	0.553	0.445	0.442	0.414	0.345	0.815	0.709	0.712	0.651	0.594
HCC-827	0.809	0.52	0.707	0.563	0.479	1.03	1.01	0.99	0.953	0.769	0.859	1.02	0.986	0.951	0.746	0.945	0.879	0.88	0.885	0.71
NCI-H647	0.788	0.496	0.652	0.636	0.362	1.33	0.92	0.759	0.93	0.738	0.423	–	0.275	0.307	0.278	1.2	1.01	0.89	0.941	0.712
NCI-H441	0.56	0.394	0.407	0.405	0.213	–	0.593	0.336	0.484	0.572	0.559	0.317	0.406	0.304	0.191	0.652	0.383	0.483	0.487	0.275
NCI-H520	0.21	0.228	0.203	0.236	0.212	1.08	0.719	0.745	0.785	0.481	0.283	0.201	0.229	0.213	0.229	1.06	0.721	0.661	0.67	0.392
EPLC-272H	0.293	–	0.257	0.254	0.213	1.21	–	1.06	1.06	0.833	0.377	–	0.272	0.266	0.262	1.15	–	0.988	0.999	0.716
NCI-H1792	0.821	0.688	0.649	0.537	0.485	0.583	0.537	0.592	0.461	0.321	0.298	0.255	0.222	0.229	0.15	0.52	0.435	0.397	0.371	0.25
CAL-12T	0.766	0.546	0.441	0.446	0.316	1.23	1.01	0.896	0.848	0.767	0.471	–	–	0.263	0.281	0.9	0.699	0.768	0.679	0.56
HARA	0.509	–	0.272	0.303	0.122	1.15	1.11	0.997	0.91	0.662	0.406	0.347	0.225	0.202	0.169	1.02	0.78	0.83	0.454	0.361
LK-2	0.208	–	0.182	0.212	0.162	1.04	–	0.651	0.819	0.843	0.574	–	0.365	0.529	0.501	0.521	0.486	0.468	0.434	0.608
NCI-H1975	0.809	0.673	0.665	0.685	0.518	1.2	1.02	1.08	0.918	0.877	0.286	0.271	0.199	0.25	0.186	0.956	0.864	0.886	0.766	0.716
